As usually defined, the melting point is the temperature, or range, at which the solid turns liquid.

The test system of data set [1] is elastase-induced emphysema. Kind of data set: Repair of alveoli in the rat model of elastase-induced emphysema (morphometric analysis). Type of data set: in vivo, male Sprague Dawley rats. To be noted: once daily starting 21 days post elastase injury. The method, then: RAR selective agonists were evaluated for its effects on alveolar repair in the rat model of elastase-induced emphysema in rats (D. Massaro et al. Nature Medicine (1997, 3, 675). Animals were divided into treatment groups of approximately eight. Lung inflammation and alveolar damage was induced in male Sprague Dawley rats by a single instillation of pancreatic elastase(porcine derived, Calbiochem) 2 U/gram body mass. Three weeks post injury, all-trans retinoic acid or RAR agonist was dissolved in dimethylsulfoxide (20 mg/ml) and stored at −20 C. Fresh working stocks were prepared daily by dilution in PBS to a final concentration of 2 mg/ml. Animals were dosed once daily with the retinoid by intraperitoneal injection or orally, starting 21 days post injury. Control groups were challenged with elastase and 21 days later treated with Vehicle (DMSO/PBS) for 14 days. Animals were sacrificed 24 hours after the last dose by exsanguination under deep anesthesia. The lungs were inflated with 10% neutral buffered formalin by intratracheal instillation at a constant rate (1 ml/gram body mass/min). The lung was excised and immersed in fixative for 24 hours prior to processing. Standard methods were used to prepare 5 um paraffin sections. Sections were stained with Hematoxylin and Eosin (H%E). Computerized Morphometric analysis was performed to determine the average alveolar size and alveolar number (Table 1).

In data set [2] the test system is animal models of emphysema. To be noted: cited from earlier work.
The next data set relates to alveoli in rats. To be noted: postnatal administration; cited from earlier work.

Regarding `CCCCCC(/C=C/c1ccc(C(=O)O)cc1)c1ccc2c(c1)C(C)(C)CCC2(C)C` (racemic) [(RS)-(E)-4-[3-(5,5,8,8-tetramethyl-5,6,7,8-tetrahydronaphthalen-2-yl)-oct-1-enyl]-benzoic Acid], the “% repair area” value is listed as 53% in data set [1] (0.003 mg/kg p.o.), 49% in data set [1] (0.01 mg/kg p.o.) and 32% in data set [1] (0.03 mg/kg p.o.).
`CC1(C)CCC(C)(C)c2cc(C(Cc3ccccc3)C(=O)Oc3ccc(C(=O)O)cc3)ccc21` (racemic) [Example 3.2, (RS)-4-[3-Phenyl-2-(5,5,8,8-tetramethyl-5,6,7,8-tetrahydronaphthalen-2-yl)-propanoyloxy]-benzoic acid] showed a melting point of 163 to 164 °C.
On the same count and under the same terms, for `CC1(C)CCC(C)(C)c2cc(C(Cc3ccc(C(F)(F)F)cc3)C(=O)Oc3ccc(C(=O)O)cc3)ccc21` (racemic) [Example 3.4, (RS)-4-[2-(5,5,8,8-Tetramethyl-5,6,7,8-tetrahydronaphthalen-2-yl)-3-(4-trifluoromethylphenyl)-propanoyloxy]-benzoic acid] the value was 158 to 159 °C; for `CCOCCC(C(=O)Oc1ccc(C(=O)O)cc1)c1ccc2c(c1)C(C)(C)CCC2(C)C` (racemic) [Example 3.5, (RS)-4-[4-Ethoxy-2-(5,5,8,8-tetramethyl-5,6,7,8-tetrahydronaphthalen-2-yl)-butanoyloxy]-benzoic acid], 133 to 134 °C.
Still for that read-out and setting: the value for `CC(/C=C/c1ccc(C(=O)O)cc1)c1ccc2c(c1)C(C)(C)CCC2(C)C` (racemic) [Example 10.2, (RS)-(E)-4-[3-(5,5,8,8-Tetramethyl-5,6,7,8-tetrahydronaphthalen-2-yl)-but-1-enyl]-benzoic acid] was 203 to 204 °C; that for `CCCC(/C=C/c1ccc(C(=O)O)cc1)c1ccc2c(c1)C(C)(C)CCC2(C)C` (racemic) [Example 10.3, (RS)-(E)-4-[3-(5,5,8,8-Tetramethyl-5,6,7,8-tetrahydronaphthalen-2-yl)-hex-1-enyl]-benzoic acid] was 116 to 118 °C.
As for `CC=CCC(/C=C/c1ccc(C(=O)O)cc1)c1ccc2c(c1)C(C)(C)CCC2(C)C` (racemic) [Example 10.4, (RS)-(E)-4-[3-(5,5,8,8-Tetramethyl-5,6,7,8-tetrahydronaphthalen-2-yl)-hepta-1,5-dienyl]-benzoic acid], the melting point fell in the range of 145 to 147 °C.
On the same count and under the same terms, the value for `CCCCC(/C=C/c1ccc(C(=O)O)cc1)c1ccc2c(c1)C(C)(C)CCC2(C)C` (racemic) [Example 10.5, (RS)-(E)-4-[3-(5,5,8,8-Tetramethyl-5,6,7,8-tetrahydronaphthalen-2-yl)-hept-1-enyl]-benzoic acid] was 107 to 108 °C; that for `CC(C)CC(/C=C/c1ccc(C(=O)O)cc1)c1ccc2c(c1)C(C)(C)CCC2(C)C` (racemic) [Example 10.7, (RS)-(E)-4-[5-Methyl-3-(5,5,8,8-tetramethyl-5,6,7,8-tetrahydronaphthalen-2-yl)-hex-1-enyl]-benzoic acid] was 61 to 78 °C; that for `CC1(C)CCC(C)(C)c2cc(C(/C=C/c3ccc(C(=O)O)cc3)Cc3ccccc3)ccc21` (racemic) [Example 10.8, (RS)-(E)-4-[4-Phenyl-3-(5,5,8,8-tetramethyl-5,6,7,8-tetrahydronaphthalen-2-yl)-but-1-enyl]-benzoic acid] was 183 to 184 °C.
Still for that read-out and setting: the value for `CC1(C)CCC(C)(C)c2cc(C(/C=C/c3ccc(C(=O)O)cc3)Cc3ccc(Cl)cc3)ccc21` (racemic) [Example 10.9, (RS)-(E)-4-[4-(4-Chlorophenyl)-3-(5,5,8,8-tetramethyl-5,6,7,8-tetrahydronaphthalen-2-yl)-but-1-enyl]-benzoic acid] was 168 to 169 °C; that for `CC1(C)CCC(C)(C)c2cc(C(/C=C/c3ccc(C(=O)O)cc3)CCc3ccccc3)ccc21` (racemic) [Example 10.11, (RS)-(E)-4-[5-Phenyl-3-(5,5,8,8-tetramethyl-5,6,7,8-tetrahydronaphthalen-2-yl)-pent-1-enyl]-benzoic acid] was 78 to 79 °C.
`CCCCCC(/C=C/c1ccc(C(=O)O)s1)c1ccc2c(c1)C(C)(C)CCC2(C)C` (racemic) [Example 10.12, (RS)-(E)-5-[3-(5,5,8,8-Tetramethyl-5,6,7,8-tetrahydronaphthalen-2-yl)-oct-1-enyl]-thiophene-2-carboxylic acid] gave a melting point of 128 to 129 °C.
The compound `CC1(C)CCC(C)(C)c2cc(C(/C=C/c3ccc(C(=O)O)cc3)Cc3ccc(F)cc3)ccc21` (racemic) [Example 10.13, (RS)-(E)-4-[4-(4-Fluorophenyl)-3-(5,5,8,8-tetramethyl-5,6,7,8-tetrahydronaphthalen-2-yl)-but-1-enyl]-benzoic acid] yielded a melting point of 168 to 169 °C.
`COc1ccc(CC(/C=C/c2ccc(C(=O)O)cc2)c2ccc3c(c2)C(C)(C)CCC3(C)C)cc1` (racemic) [Example 10.15, (RS)-(E)-4-[4-(4-Methoxyphenyl)-3-(5,5,8,8-tetramethyl-5,6,7,8-tetrahydronaphthalen-2-yl)-but-1-enyl]-benzoic acid] came in with a melting point of 170 to 175 °C.
Still for that read-out and setting: for `CCCCCC(/C=C/c1ccc(C(=O)O)cc1F)c1ccc2c(c1)C(C)(C)CCC2(C)C` (racemic) [Example 10.16, (RS)-(E)-3-Fluoro-4-[3-(5,5,8,8-tetramethyl-5,6,7,8-tetrahydronaphthalen-2-yl)-oct-1-enyl]-benzoic acid] the value was 112 to 113 °C; for `CCCCCC(C#Cc1ccc(C(=O)O)cc1)c1ccc2c(c1)C(C)(C)CCC2(C)C` (racemic) [Example 12, (RS)-4-[3-(5,5,8,8-tetramethyl-5,6,7,8-tetrahydronaphthalen-2-yl)-oct-1-ynyl]-benzoic Acid], 115 to 116 °C.
Still for that read-out and setting: for `COC(C(=O)Oc1ccc(C(=O)O)cc1)c1ccc2c(c1)C(C)(C)CCC2(C)C` (racemic) [Example 15.2. d), (RS)-4-[methoxy-(5,5,8,8-tetramethyl-5,6,7,8-tetrahydro-naphthalen-2-yl)-acetoxy]-benzoic acid] the value was 190 to 195 °C; for `CCOC(C(=O)Oc1ccc(C(=O)O)cc1)c1ccc2c(c1)C(C)(C)CCC2(C)C` (racemic) [Example 15.3. d), (RS)-4-[ethoxy-(5,5,8,8-tetramethyl-5,6,7,8-tetrahydro-naphthalen-2-yl)-acetoxy]-benzoic acid], 123 to 125 °C.
On the same count and under the same terms, for `CCCOC(C(=O)Oc1ccc(C(=O)O)cc1)c1ccc2c(c1)C(C)(C)CCC2(C)C` (racemic) [Example 15.4. d), (RS)-4-[propoxy-(5,5,8,8-tetramethyl-5,6,7,8-tetrahydro-naphthalen-2-yl)-acetoxy]-benzoic acid] the value was 155 to 156 °C.
`CC1(C)CCSc2ccc(C(/C=C/c3ccc(C(=O)O)cc3)Cc3ccccc3)cc21` (racemic) [Example 40.2, (RS)-(E)-4-[3-(4,4-Dimethyl-thiochroman-6-yl)-4-phenylbut-1-enyl]-benzoic acid] yielded a melting point of 183 to 184 °C.
The same measure, in the same setting: for `CC1(C)CCSc2ccc(C(/C=C/c3ccc(C(=O)O)cc3)CCc3ccccc3)cc21` (racemic) [Example 40.3, (RS)-(E)-4-[3-(4,4-Dimethyl-thiochroman-6-yl)-5-phenylpent-1-enyl]-benzoic acid] the value was 63 to 76 °C; for `CCCCOC(C(=O)Oc1ccc(C(=O)O)cc1)c1ccc2c(c1)C(C)(C)CCC2(C)C` (single isomer, unassigned) [Example 16 (from diastereomer I), (R)- or (S)-4-[butoxy-(5,5,8,8-tetramethyl-5,6,7,8-tetrahydro-naphthalen-2-yl)-acetoxy]-benzoic acid], 112 to 113 °C; for `CCCCOC(C(=O)Oc1ccc(C(=O)O)cc1)c1ccc2c(c1)C(C)(C)CCC2(C)C` (single isomer, unassigned) [Example 16 (from diastereomer II), (S)- or (R)-4-[butoxy-(5,5,8,8-tetramethyl-5,6,7,8-tetrahydro-naphthalen-2-yl)-acetoxy]-benzoic acid], 113 to 114 °C.
`CC1(C)CCC(C)(C)c2cc(CCOc3ccc(C(=O)O)cc3)ccc21` [Example 11.2, 4-[2-(5,5,8,8-Tetramethyl-5,6,7,8-tetrahydronaphthalen-2-yl)-ethyloxy]-benzoic acid] yielded a melting point of 195 to 196 °C.
With `CC1=C(/C=C/C(C)=C/C=C/C(C)=C/C(=O)O)C(C)(C)CCC1` [all-trans retinoic acid], the “formation of new alveoli and elastic recoil” value in data set [2] was “can induce formation of new alveoli and return elastic recoil to near normal”. Also, in the data set on alveoli in rats, the number of alveoli entry is reported as “increases the number of alveoli in rats”.

The values are drawn from patent US6603012B2, “RAR selective retinoid agonists” (Hoffmann-La Roche Inc., priority 2000, dated 2003).
